Laboratory results taken from patent US20220024921A1, “1,3,4-OXADIAZOLONE COMPOUND AND PHARMACEUTICAL” (NIPPON SHINYAKU CO., LTD., priority 2018, published 2022).
Structures can show the parent of a compound that is named as a salt.

Assays:
[1] = system: graft-versus-host disease model CB6F1 mice; assay: Lymphocyte proliferation inhibitory effect using graft-versus-host disease model animals (splenomegaly formation); format: in vivo; conditions: Mus musculus, 240 h, oral, twice a day for 10 days, GVHD model CB6F1 mice, read-out: Inhibition rate (%) (splenomegaly formation); for inhibition in vivo at 3 mg/kg: single dose 3 mg/kg; for inhibition in vivo at 10 mg/kg: single dose 10 mg/kg
Protocol: BALB/c mice (8-week-aged female) were euthanized, and then the spleen was removed from each mouse. Then, hemolysis treatment was performed to isolate spleen cells. The obtained spleen cells were intravenously transplanted into CB6F1 mice (8-week-aged female), which are C57BL/6 and BALB/c F1 mice, to prepare a model, and splenomegaly was induced. For transplantation, spleen cells for 1.2 BALB/c mouse were used for one CB6F1 mouse.
Each test substance shown in Table 64 was weighed and dissolved in a 0.5% methyl cellulose solution, thereby preparing test substance solutions of 0.3 to 10 mg/mL.
A vehicle (0.5% methyl cellulose solution) or test substance was orally administered to each CB6F1 mouse after transplantation at a dose of 3 to 50 mg/kg in terms of body weight twice a day for 10 days from the day after transplantation. The mouse was euthanized on the 11th day from the start of administration, then the spleen was removed therefrom, and the wet weight of the spleen was measured. For each of CB6F1 mice that had not undergone transplantation as a control group, the wet weight of the spleen was also measured.
The splenomegaly formation inhibition rate when the spleen weights of the mice to which the vehicle was administered after transplantation and the mice on which transplantation had not been performed were 0% and 100%, respectively, was calculated.

[2] = target: PIM2 transgenic cells (Ba/F3) (Homo sapiens, UniProt Q9P1W9); assay: Proliferation inhibitory effect on PIM2 transgenic cells; format: cell-based, mouse; conditions: proliferation inhibition, 72 hours, Cell Counting Kit-8, read-out: PIM2 IC50
PIM2 transgenic cells (Ba/F3), sequence (Q9P1W9 whole entry, stated change not applied): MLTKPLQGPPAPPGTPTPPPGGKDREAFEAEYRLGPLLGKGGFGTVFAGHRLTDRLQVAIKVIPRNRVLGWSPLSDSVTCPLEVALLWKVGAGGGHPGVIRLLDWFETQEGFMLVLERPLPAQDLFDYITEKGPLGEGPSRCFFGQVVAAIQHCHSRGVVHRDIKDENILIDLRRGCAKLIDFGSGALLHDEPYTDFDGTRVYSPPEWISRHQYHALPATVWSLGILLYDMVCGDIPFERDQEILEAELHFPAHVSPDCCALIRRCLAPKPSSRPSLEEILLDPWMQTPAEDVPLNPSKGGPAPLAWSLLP
From the text: (§1) Human PIM1, 2, and 3 genes were inserted into the multi-cloning sites of retrovirus expression vectors pMYs-IRES-GFP, respectively, to prepare gene transfer vectors. Then, each gene transfer vector was introduced into packaging cells PLAT-E derived from a human fetal kidney cell line in the logarithmic growth phase, using a transfection reagent (FuGENE6, Promega Corporation). Since the culture supernatant of PLAT-E after gene transfer contained virus particles for gene transfer, the culture supernatant was collected and used as a medium for gene transfer. The medium for gene transfer was added to a plate coated with RetroNectin, and the plate was incubated to attach the virus particles to the plate. Then, a mouse pro-B cell line Ba/F3 in the logarithmic growth phase was seeded on the plate and infected with the virus to prepare PIM1, 2, or 3 transgenic cells that proliferate in a PIM 1, 2, or 3-dependent manner. The expression of PIM1, 2, or 3 protein in each cell was confirmed by Western blotting.
(§2) Each test substance was prepared to 10 mM with dimethylsulfoxide (DMSO), and diluted with DMSO so as to have concentrations of 3000, 1000, 300, 100, 30, 10, 3, and 1 μM. Moreover, each dilution was further diluted 10-fold with distilled water to prepare a test substance solution.
(§3) PIM1, 2, 3-expressing cells were seeded on a 96-well plate, and each test substance solution prepared the next day was added such that final concentrations were 10000, 3000, 1000, 300, 100, 30, 10, 3, and 1 nM. 72 hours after the addition, 10 μL of Cell Counting Kit-8 (DOJINDO LABORATORIES) was added to each well. After incubation for 1 to 4 hours, absorbance OD450 at 450 nm was measured. In addition, absorption OD650 at 650 nm as a reference wavelength was measured.
(§4) OD450-OD650 for each condition was calculated, and then the inhibition rates when OD450-OD650 of negative control (DMSO only) and OD450-OD650 of Blank (without cells) were set to 0% and 100%, respectively, were calculated. Then, non-linear regression analysis was performed for logarithmic dose and inhibition rate using a two-parameter logistic model to estimate IC50 values.
(§5) For the compounds with the following Example numbers, in addition to the above proliferation inhibitory effect on PIM1 transgenic cells, the proliferation inhibitory effect on PIM2 transgenic cells and the proliferation inhibitory effect on PIM3 transgenic cells were calculated as IC50.

[3] = target: PIM3 transgenic cells (Ba/F3) (Homo sapiens, UniProt Q86V86); assay: Proliferation inhibitory effect on PIM3 transgenic cells; format: cell-based, mouse; conditions: proliferation inhibition, 72 hours, Cell Counting Kit-8, read-out: PIM3 IC50
From the text: as §1, §2, §3, §4, §5

[4] = target: T1, PIM2 serine/threonine kinase (Homo sapiens, UniProt Q9P1W9); assay: PIM2 serine/threonine kinase inhibitory effect; format: biochemical; conditions: PIM2 serine/threonine kinase activity; ATP 2 μM; 30° C., 30 minutes
T1 construct: purchased Carna Bioscience, Inc
T1 sequence (Q9P1W9 whole entry): as the sequence (Q9P1W9 whole entry, stated change not applied) above
Protocol: (§6) Each test substance was prepared to 10 mM with dimethylsulfoxide (DMSO), and further diluted with DMSO so as to have concentrations of 1000, 300, 100, 30, 10, 3, 1, 0.3, 0.1, 0.03, 0.01, and 0.001 μM. Moreover, each dilution was further diluted 33.3-fold with an assay buffer to prepare a test substance solution. The composition of the assay buffer was 50 mM HEPES (pH 7.0), 0.02% NaN3, 0.01% Bovine Serum Albumin, 0.1 mM Orthovanadate, 1 mM Dithiothreitol, and 5 mM MgCl2.
(§7) 5 μL of each test substance solution was added to 384-well plates (n=2), and then 2.5 μL of a substrate solution (substrate 3-biotin (Cisbio Bioassays SAS), final concentration in the reaction solution: 0.5 μM) and 2.5 μL of an ATP solution (in the cases of PIM1, 2, 3, the final concentrations in the reaction solutions were 40, 2, and 10 μM, respectively) were added, 5 μL of each of PIM1, 2, 3 serine/threonine kinase solutions (Carna Bioscience, Inc., the final concentrations in the reaction solutions were 0.15, 1.6, and 0.25 μg/ml, respectively) was finally added, and the mixture was reacted at 30° C. for 30 minutes. The test substance concentrations in the reaction solutions are 10000, 3000, 1000, 300, 100, 30, 10, 3, 1, 0.3, 0.1, and 0.01 nM.
(§8) Thereafter, 15 μL of each detection solution (62.5 nM Streptavidin-XL665 (Cisbio Bioassays SAS), […] STK antibody-Cryptate (Cisbio Bioassays SAS), 50 mM HEPES (pH 7.0), 0.8 M KF, 0.1% Bovine Serum Albumin, 20 mM ethylenediaminetetraacetic acid) was added to each well. After stirring, the mixture was reacted at 30° C. for 1 hour. Absorbance (OD620, OD665) at 620 and 665 nm was measured with a microplate reader (SpectraMax M5e, Molecular Devices, LLC).
(§9) Non-linear regression analysis was performed by an SAS system (SAS Institute Inc.) using the ratio (OD665/OD620) of the measured absorbance to calculate a test substance concentration (IC50) that inhibits PIM1 serine/threonine kinase activity by 50%.
(§10) For the compounds with the following Example numbers, in addition to the above PIM1 serine/threonine kinase activity (IC50), test substance concentrations (IC50) that inhibit PIM2 serine/threonine kinase activity and PIM3 serine/threonine kinase activity by 50% were calculated.

[5] = target: T2, PIM1 serine/threonine kinase (Homo sapiens, UniProt P11309); assay: PIM1 serine/threonine kinase inhibitory effect; format: biochemical; conditions: PIM1 serine/threonine kinase activity; ATP 40 μM; 30° C., 30 minutes
T2 construct: purchased Carna Bioscience, Inc
T2 sequence (P11309 whole entry): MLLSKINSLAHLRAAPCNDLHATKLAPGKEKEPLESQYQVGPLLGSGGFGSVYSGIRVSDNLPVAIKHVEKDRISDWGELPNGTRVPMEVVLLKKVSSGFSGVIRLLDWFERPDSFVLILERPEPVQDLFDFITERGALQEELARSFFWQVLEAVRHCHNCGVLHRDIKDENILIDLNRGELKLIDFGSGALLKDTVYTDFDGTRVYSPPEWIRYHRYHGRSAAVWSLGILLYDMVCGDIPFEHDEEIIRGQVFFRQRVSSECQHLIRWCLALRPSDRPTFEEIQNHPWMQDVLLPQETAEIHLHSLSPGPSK
Summary of the method: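 Recombinant PIM1 (0.15 μg/ml final) with 0.5 μM biotinylated substrate and 40 μM ATP in pH 7.0 HEPES/MgCl2 buffer, 30 min at 30° C. Compound range was 0.01–10000 nM final, n=2. HTRF detection with streptavidin-XL665 and anti-phospho antibody-cryptate, 1 h; IC50 from non-linear regression of the 665/620 ratio.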

[6] = target: PIM1 transgenic cells (Ba/F3) (Homo sapiens, UniProt P11309); assay: Proliferation inhibitory effect on PIM1 transgenic cells; format: cell-based, mouse; conditions: proliferation inhibition, 72 hours, Cell Counting Kit-8, read-out: PIM1 IC50
PIM1 transgenic cells (Ba/F3), sequence (P11309 whole entry, stated change not applied): as the sequence (P11309 whole entry) above
Summary of the method: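 Mouse Ba/F3 pro-B cells were retrovirally transduced with human PIM1 so that their proliferation depends on PIM1. Cells were treated with compound at 1–10000 nM final for 72 h, then read by CCK-8 (OD450−OD650). Inhibition was set against DMSO (0%) and no-cell blank (100%), and IC50 was obtained by two-parameter logistic regression.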

[7] = system: graft-versus-host disease model CB6F1 mice; assay: Lymphocyte proliferation inhibitory effect using graft-versus-host disease model animals (splenomegaly formation); format: in vivo; conditions: Mus musculus, 240 h, single dose 100 mg/kg, oral, twice a day for 10 days, GVHD model CB6F1 mice, read-out: Inhibition rate (%) (splenomegaly formation)
[8] = target: T3, PIM3 serine/threonine kinase (Homo sapiens, UniProt Q86V86); assay: PIM3 serine/threonine kinase inhibitory effect; format: biochemical; conditions: PIM3 serine/threonine kinase activity; ATP 10 μM; 30° C., 30 minutes
T3 construct: purchased Carna Bioscience, Inc
Protocol: as §6, §7, §8, §9, §10

Compound | GI50 [2] [nM] | GI50 [3] [nM] | IC50 [4] [nM] | IC50 [5] [nM] | GI50 [6] [nM] | IC50 [8] [nM] | inhibition in vivo at 25 mg/kg ([1]; single dose 25 mg/kg) [%] | inhibition in vivo at 50 mg/kg ([1]; single dose 50 mg/kg) [%] | inhibition in vivo at 100 mg/kg [7] [%] | inhibition in vivo at 3 mg/kg [1] [%] | inhibition in vivo at 10 mg/kg [1] [%]
C[C@H](Nc1cc(-c2n[nH]c(=O)o2)ccc1C(F)(F)F)C1CCNCC1 [Example 58, 5-[3-{[(1S)-1-(piperidin-4-yl)ethyl]amino}-4-(trifluoromethyl)phenyl]-1,3,4-oxadiazol-2(3H)-one hydrochloride] | 3600 | 570 | 18 | 2 | 33 | 16 | 19 | 41.6 | 39.8 |  | 
C[C@@H]1CNCC[C@@H]1[C@H](C)Nc1cc(-c2n[nH]c(=O)o2)cc(F)c1OC(F)(F)F [Example 219, 5-[3-fluoro-5-({(1S)-1-[(3S,4S)-3-methylpiperidin-4-yl]ethyl}amino)-4-(trifluoromethoxy)phenyl]-1,3,4-oxadiazol-2(3H)-one] | 1100 | 40 |  | 1.8 | 11 |  |  |  |  | 27.7 | 33.8
C[C@H](Nc1cc(-c2n[nH]c(=O)o2)cc(F)c1C(F)(F)F)[C@H]1CCNC[C@H]1F [Example 223, 5-[3-fluoro-5-({(1S)-1-[(3S,4R)-3-fluoropiperidin-4-yl]ethyl}amino)-4-(trifluoromethyl)phenyl]-1,3,4-oxadiazol-2(3H)-one hydrochloride] | 290 | 59 |  | 1.6 | 11 |  |  |  |  | 34.1 | 36.8

More lines, main results first:

GI50 [2] [nM] | GI50 [3] [nM] | IC50 [4] [nM] | IC50 [5] [nM] | GI50 [6] [nM] | IC50 [8] [nM] | Compound | inhibition in vivo at 25 mg/kg ([1]; single dose 25 mg/kg) [%] | inhibition in vivo at 50 mg/kg ([1]; single dose 50 mg/kg) [%] | inhibition in vivo at 100 mg/kg [7] [%] | inhibition in vivo at 3 mg/kg [1] [%] | inhibition in vivo at 10 mg/kg [1] [%]
390 | 51 |  | 1.1 | 7.6 |  | CC[C@@H]1CNCC[C@@H]1[C@H](C)Nc1cc(-c2n[nH]c(=O)o2)cc(F)c1C(F)(F)F [Example 225, 5-[3-({(1S)-1-[(3S,4S)-3-ethylpiperidin-4-yl]ethyl}amino)-5-fluoro-4-(trifluoromethyl)phenyl]-1,3,4-oxadiazol-2(3H)-one] |  |  |  | 18.9 | 32.3
510 | 35 |  | 0.8 | 7.1 |  | C[C@H](Nc1cc(-c2n[nH]c(=O)o2)cc(F)c1OC(F)(F)F)[C@H]1CCNC[C@H]1F [Example 224, 5-[3-fluoro-5-({(1S)-1-[(3S,4R)-3-fluoropiperidin-4-yl]ethyl}amino)-4-(trifluoromethoxy)phenyl]-1,3,4-oxadiazol-2(3H)-one] |  |  |  | 22.8 | 39.1
